# According to PubChem BioAssay (NCI):
#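 These data come from cells grown in 96-well plates and exposed to compound for 48 hours at five concentrations. At the TGI there is no net growth.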
# Assays:
# Test in all cases: NCI tumour cell line growth inhibition, 48 h
# [1] = system: OVCAR-8 ovarian
# [2] = system: SF-539 CNS
# [3] = system: DMS 273 small cell lung
# [4] = system: EKVX NSCLC
# [5] = system: ACHN renal
# [6] = system: HT29 colon
# [7] = system: 786-0 renal
# [8] = system: MALME-3M melanoma
# [9] = system: HCC-2998 colon
# [10] = system: U251 CNS
# [11] = system: DMS 114 small cell lung
# [12] = system: LXFL 529 NSCLC
# [13] = system: M14 melanoma
# [14] = system: TK-10 renal
# [15] = system: NCI-H226 lung
# [16] = system: COLO 205 colon
# [17] = system: UACC-257 melanoma
# [18] = system: HL-60(TB) leukemia
# [19] = system: HOP-18 NSCLC
# [20] = system: SNB-19 CNS
# [21] = system: HOP-92 NSCLC
# [22] = system: NCI-H23 lung
# [23] = system: OVCAR-4 ovarian
# [24] = system: SK-OV-3 ovarian
# [25] = system: IGROV1 ovarian
# [26] = system: DLD-1 colon
# [27] = system: SF-268 CNS
# [28] = system: SF-295 CNS
# [29] = system: SNB-75 CNS
# [30] = system: A549 NSCLC
# [31] = system: KM12 colon
# [32] = system: M19-MEL melanoma
# [33] = system: OVCAR-5 ovarian
# [34] = system: SK-MEL-2 melanoma
# [35] = system: NCI-H460 lung
# [36] = system: SNB-78 CNS
# [37] = system: OVCAR-3 ovarian
# [38] = system: RPMI-8226 leukemia
# [39] = system: HCT-15 colon
# [40] = system: SN12C renal
# [41] = system: XF 498 CNS
# [42] = system: K-562 leukemia
# [43] = system: SK-MEL-28 melanoma
# [44] = system: HCT-116 colon
# [45] = system: CCRF-CEM leukemia
# [46] = system: MOLT-4 leukemia
# [47] = system: UO-31 renal
# [48] = system: RXF 393 renal
# [49] = system: UACC-62 melanoma
# [50] = system: A498 renal
# [51] = system: NCI-H522 lung
# [52] = system: KM20L2 colon
# [53] = system: SW-620 colon
# [54] = system: SK-MEL-5 melanoma
# [55] = system: HOP-62 NSCLC
# [56] = system: SR leukemia
# [57] = system: RXF-631 renal
# [58] = system: CAKI-1 renal
# [59] = system: LOX IMVI melanoma
compound,measurement,setting,value
Cc1ccc(S(=O)(=O)C(C#N)c2nc3ccccc3nc2-n2cccn2)cc1 (stereo not given),TGI,[1],> 100 µM
same,TGI,[2],> 100 µM
same,TGI,[3],> 100 µM
same,TGI,[4],> 100 µM
same,TGI,[5],> 100 µM
same,TGI,[6],> 100 µM
same,TGI,[7],> 100 µM
same,TGI,[8],> 100 µM
same,TGI,[9],> 100 µM
same,TGI,[10],> 100 µM
same,TGI,[11],> 100 µM
same,TGI,[12],> 100 µM
same,TGI,[13],> 100 µM
same,TGI,[14],> 100 µM
same,TGI,[15],> 100 µM
same,TGI,[16],> 100 µM
same,TGI,[17],> 100 µM
same,TGI,[18],> 100 µM
same,TGI,[19],> 100 µM
same,TGI,[20],> 100 µM
same,TGI,[21],> 100 µM
same,TGI,[22],> 100 µM
same,TGI,[23],> 100 µM
same,TGI,[24],> 100 µM
same,TGI,[25],> 100 µM
same,TGI,[26],> 100 µM
same,TGI,[27],> 100 µM
same,TGI,[28],> 100 µM
same,TGI,[29],> 100 µM
same,TGI,[30],> 100 µM
same,TGI,[31],> 100 µM
same,TGI,[32],> 100 µM
same,TGI,[33],> 100 µM
same,TGI,[34],> 100 µM
same,TGI,[35],> 100 µM
same,TGI,[36],> 100 µM
same,TGI,[37],> 100 µM
same,TGI,[38],> 100 µM
same,TGI,[39],> 100 µM
same,TGI,[40],> 100 µM
same,TGI,[41],> 100 µM
same,TGI,[42],> 100 µM
same,TGI,[43],> 100 µM
same,TGI,[44],> 100 µM
same,TGI,[45],> 100 µM
same,TGI,[46],> 100 µM
same,TGI,[47],> 100 µM
COC(=O)/C(=N\NC(=O)c1ccccc1O)C(C#N)c1ccc(Cl)cc1 (stereo not given),TGI,[1],> 100 µM
same,TGI,[2],> 100 µM
same,TGI,[48],79.8 µM
same,TGI,[4],> 100 µM
same,TGI,[5],> 100 µM
same,TGI,[6],> 100 µM
same,TGI,[7],> 100 µM
same,TGI,[8],> 100 µM
same,TGI,[9],88.7 µM
same,TGI,[10],> 100 µM
same,TGI,[11],> 100 µM
same,TGI,[12],> 100 µM
same,TGI,[13],> 100 µM
same,TGI,[14],> 100 µM
same,TGI,[49],> 100 µM
same,TGI,[16],> 100 µM
same,TGI,[17],> 100 µM
same,TGI,[18],> 100 µM
same,TGI,[19],> 100 µM
same,TGI,[21],> 100 µM
same,TGI,[22],76 µM
same,TGI,[50],> 100 µM
same,TGI,[23],> 100 µM
same,TGI,[51],72.3 µM
same,TGI,[25],> 100 µM
same,TGI,[26],> 100 µM
same,TGI,[27],> 100 µM
same,TGI,[28],> 100 µM
same,TGI,[30],> 100 µM
same,TGI,[31],> 100 µM
same,TGI,[32],> 100 µM
same,TGI,[33],90.3 µM
same,TGI,[52],> 100 µM
same,TGI,[34],> 100 µM
same,TGI,[35],> 100 µM
same,TGI,[53],> 100 µM
same,TGI,[36],> 100 µM
same,TGI,[54],> 100 µM
same,TGI,[37],> 100 µM
same,TGI,[55],95.8 µM
same,TGI,[56],> 100 µM
same,TGI,[39],> 100 µM
same,TGI,[40],> 100 µM
same,TGI,[57],> 100 µM
same,TGI,[42],> 100 µM
same,TGI,[43],> 100 µM
same,TGI,[44],> 100 µM
same,TGI,[45],> 100 µM
same,TGI,[46],> 100 µM
same,TGI,[47],37.3 µM
CC1=C(C#N)C(N)=C2C(C)=C(C#N)C(N)=C12,TGI,[1],> 100 µM
same,TGI,[2],> 100 µM
same,TGI,[3],> 100 µM
same,TGI,[48],> 100 µM
same,TGI,[4],> 100 µM
same,TGI,[6],> 100 µM
same,TGI,[7],> 100 µM
same,TGI,[8],> 100 µM
same,TGI,[9],> 100 µM
same,TGI,[10],> 100 µM
same,TGI,[11],> 100 µM
same,TGI,[12],> 100 µM
same,TGI,[13],> 100 µM
same,TGI,[14],> 100 µM
same,TGI,[15],> 100 µM
same,TGI,[49],> 100 µM
same,TGI,[16],> 100 µM
same,TGI,[17],> 100 µM
same,TGI,[18],> 100 µM
same,TGI,[20],> 100 µM
same,TGI,[21],> 100 µM
same,TGI,[22],> 100 µM
same,TGI,[50],> 100 µM
same,TGI,[23],> 100 µM
same,TGI,[24],> 100 µM
same,TGI,[51],> 100 µM
same,TGI,[25],> 100 µM
same,TGI,[26],> 100 µM
same,TGI,[27],> 100 µM
same,TGI,[28],> 100 µM
same,TGI,[29],> 100 µM
same,TGI,[30],> 100 µM
same,TGI,[31],> 100 µM
same,TGI,[32],> 100 µM
same,TGI,[33],> 100 µM
same,TGI,[52],> 100 µM
same,TGI,[35],> 100 µM
same,TGI,[53],> 100 µM
same,TGI,[36],> 100 µM
same,TGI,[54],> 100 µM
same,TGI,[37],> 100 µM
same,TGI,[55],> 100 µM
same,TGI,[56],> 100 µM
same,TGI,[38],> 100 µM
same,TGI,[39],> 100 µM
same,TGI,[40],> 100 µM
same,TGI,[41],> 100 µM
same,TGI,[58],> 100 µM
same,TGI,[42],> 100 µM
same,TGI,[59],> 100 µM
same,TGI,[44],> 100 µM
same,TGI,[45],> 100 µM
same,TGI,[46],> 100 µM
same,TGI,[47],> 100 µM
COc1ccc(C(=O)Cc2cc(OC)ccc2OC)cc1,TGI,[1],> 100 µM
same,TGI,[2],> 100 µM
same,TGI,[3],> 100 µM
same,TGI,[48],> 100 µM
same,TGI,[4],> 100 µM
same,TGI,[5],> 100 µM
same,TGI,[6],> 100 µM
same,TGI,[8],> 100 µM
same,TGI,[9],> 100 µM
same,TGI,[10],> 100 µM
same,TGI,[11],> 100 µM
same,TGI,[12],> 100 µM
same,TGI,[13],> 100 µM
same,TGI,[14],> 100 µM
same,TGI,[15],> 100 µM
same,TGI,[49],> 100 µM
same,TGI,[16],> 100 µM
same,TGI,[17],> 100 µM
same,TGI,[18],> 100 µM
same,TGI,[19],> 100 µM
same,TGI,[20],> 100 µM
same,TGI,[22],> 100 µM
same,TGI,[50],> 100 µM
same,TGI,[23],> 100 µM
same,TGI,[24],> 100 µM
same,TGI,[51],> 100 µM
same,TGI,[25],> 100 µM
same,TGI,[26],> 100 µM
same,TGI,[27],> 100 µM
same,TGI,[28],> 100 µM
same,TGI,[29],60.1 µM
same,TGI,[30],> 100 µM
same,TGI,[32],> 100 µM
same,TGI,[33],> 100 µM
same,TGI,[52],> 100 µM
same,TGI,[34],> 100 µM
same,TGI,[35],> 100 µM
same,TGI,[53],> 100 µM
same,TGI,[36],> 100 µM
same,TGI,[54],> 100 µM
same,TGI,[37],> 100 µM
same,TGI,[55],> 100 µM
same,TGI,[56],> 100 µM
same,TGI,[38],> 100 µM
same,TGI,[39],> 100 µM
same,TGI,[40],> 100 µM
same,TGI,[57],> 100 µM
same,TGI,[58],> 100 µM
same,TGI,[42],> 100 µM
same,TGI,[59],> 100 µM
same,TGI,[44],> 100 µM
same,TGI,[45],> 100 µM
same,TGI,[46],> 100 µM
same,TGI,[47],> 100 µM
